Measurements reported in BigSolDB 2.1.

Conditions: 298.15 K

CC(=O)Oc1ccccc1C(=O)O
Conditions | solubility (mole fraction)
in 1,4-dioxane | 0.126
in 2-ethylhexanol | 0.0303
in 2-methyl-1-butanol | 0.0344
in 2-methyl-1-pentanol | 0.0321
in 2-pentanol | 0.0435
in 3,7-dimethyl-1-octanol | 0.0304
in 4-methyl-2-pentanol | 0.0393
in MTBE | 0.0401
in THF | 0.19
in dibutyl ether | 0.00709
in diethyl ether | 0.0353
in diisopropyl ether | 0.0122
in ethyl acetate | 0.0458
in isobutanol | 0.0319
in isopentanol | 0.0381
in isopropanol | 0.0523
in methyl acetate | 0.0529
in methyl butyrate | 0.0297
in n-butanol | 0.0462
in n-butyl acetate | 0.0335
in n-decanol | 0.0365
in n-heptanol | 0.0389
in n-hexanol | 0.0397
in n-octanol | 0.0358
in n-pentanol | 0.0397
in n-pentyl acetate | 0.0268
in n-propanol | 0.0498
in propylene carbonate | 0.0313
in sec-butanol | 0.0536
in tert-amyl alcohol | 0.0818
in tert-butanol | 0.0684
